ChEMBL document CHEMBL1154655, “Curcumin analog cytotoxicity against breast cancer cells: exploitation of a redox-dependent mechanism” (Bioorg Med Chem Lett, 2009)

Assays:
[1] = tested on: MDA-MB-435; test: Cytotoxicity against human MDA-MB-435 cells; format: functional, cell-based
[2] = tested on: A549; test: Inhibition of NF-kappaB nuclear translocation in human A549 cells; format: functional, cell-based

IC50 [2] [µM] | Structure (SMILES) | IC50 [1] [µM]
1.3 | O=C1/C(=C/c2ccccc2F)CNC/C1=C\c1ccccc1F | 1.5
 | O=C1/C(=C/c2ccccn2)CNC/C1=C\c1ccccn1 | 1
13 | COc1cc(/C=C/C(=O)CC(=O)/C=C/c2ccc(O)c(OC)c2)ccc1O [CURCUMIN] | 
